Data reported in US10323022B2, “Pyrrolidinyl urea, pyrrolidinyl thiourea and pyrrolidinyl guanidine compounds as TrkA kinase inhibitors” (Array BioPharma Inc., priority 2011, dated 2019).
Structures can show the parent of a compound that is named as a salt.

Target: TrkA (Homo sapiens (Human), UniProt P04629)
Assay: TrkA Omnia Assay
Type: biochemical
Details: averaged IC50; 20 nM enzyme, 500 μM ATP, 10 μM peptide substrate
Outline: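 Continuous fluorescent kinase read-out (ex 360 nm, em 485 nm) over 70 min, with initial rates fitted to 4- or 5-parameter logistic curves for IC50. Final conditions: 500 μM ATP, 10 μM Omnia Tyr Peptide #4, 20 nM TrkA, MOPS pH 7.5 buffer with MgCl2 and Triton X-100; enzyme and compound preincubated 10 min at ambient temperature.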

Chain of TrkA (P04629 33-796): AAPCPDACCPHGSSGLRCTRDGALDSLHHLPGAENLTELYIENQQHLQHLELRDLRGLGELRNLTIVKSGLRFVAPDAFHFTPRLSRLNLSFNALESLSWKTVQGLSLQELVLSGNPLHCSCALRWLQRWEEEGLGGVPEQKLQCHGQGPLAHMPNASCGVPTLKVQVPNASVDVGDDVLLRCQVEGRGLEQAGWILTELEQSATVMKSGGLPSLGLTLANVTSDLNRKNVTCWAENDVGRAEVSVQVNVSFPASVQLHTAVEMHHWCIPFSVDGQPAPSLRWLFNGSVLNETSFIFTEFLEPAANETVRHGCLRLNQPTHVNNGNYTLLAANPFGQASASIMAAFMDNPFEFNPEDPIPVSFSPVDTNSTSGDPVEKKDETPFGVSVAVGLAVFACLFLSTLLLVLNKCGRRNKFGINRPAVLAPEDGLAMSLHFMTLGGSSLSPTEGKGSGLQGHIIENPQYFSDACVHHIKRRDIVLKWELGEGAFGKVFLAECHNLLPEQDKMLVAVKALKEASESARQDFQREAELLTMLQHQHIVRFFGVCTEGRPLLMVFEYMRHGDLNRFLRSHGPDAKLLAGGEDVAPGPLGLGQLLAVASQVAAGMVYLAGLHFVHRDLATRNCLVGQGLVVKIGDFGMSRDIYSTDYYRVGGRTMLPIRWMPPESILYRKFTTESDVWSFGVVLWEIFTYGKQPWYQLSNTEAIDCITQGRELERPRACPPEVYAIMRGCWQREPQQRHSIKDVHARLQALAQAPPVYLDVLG

| IC50 [nM] | Compound |
| --- | --- |
| < 100 | COCCN1C[C@@H](NC(=O)Nc2cc(-c3ccc(Cl)cc3)nn2C)[C@H](c2ccc(F)c(F)c2)C1 [Example 119, 1-(3-(4-chlorophenyl)-1-methyl-1H-pyrazol-5-yl)-3-((3S,4R)-4-(3,4-difluorophenyl)-1-(2-methoxyethyl)pyrrolidin-3-yl)urea] |
| < 100 | COCCN1C[C@@H](NC(=O)Nc2cc(-c3cnn(C)c3)nn2-c2ccccc2)[C@H](c2ccc(F)c(F)c2)C1 [Example 73, 1-((3S,4R)-4-(3,4-difluorophenyl)-1-(2-methoxyethyl)pyrrolidin-3-yl)-3-(1′-methyl-1-phenyl-1H,1′H-3,4′-bipyrazol-5-yl)urea] |
| < 100 | COCCN1C[C@@H](NC(=O)Nc2c(Br)c(C3CCN(C(=O)OC(C)(C)C)CC3)nn2-c2ccccc2)[C@H](c2ccc(F)c(F)c2)C1 [Example 575, Tert-butyl 4-(4-bromo-5-(3-((3S,4R)-4-(3,4-difluorophenyl)-1-(2-methoxyethyl)pyrrolidin-3-yl)ureido)-1-phenyl-1H-pyrazol-3-yl)piperidine-1-carboxylate] |
| < 100 | Cc1c(OC[C@H](O)CO)nn(-c2ccccc2)c1NC(=O)N[C@@H]1CN(c2cn[nH]c2)C[C@H]1c1ccc(F)c(F)c1 [Example 222, 1-((3S,4R)-4-(3,4-difluorophenyl)-1-(1H-pyrazol-4-yl)pyrrolidin-3-yl)-3-(3-((R)-2,3-dihydroxypropoxy)-4-methyl-1-phenyl-1H-pyrazol-5-yl)urea] |
| 100 to 1000 | C[C@H]1[C@@H](c2ccccc2)C(NC(=O)Nc2c3c(nn2-c2ccccc2)CCC3)CN1CC(F)(F)F (stereo partly drawn) [Example 274, (R,S)-1-((3β,4α,5α)-5-methyl-4-phenyl-1-(2,2,2-trifluoroethyl)pyrrolidin-3-yl)-3-(2-phenyl-2,4,5,6-tetrahydrocyclopenta[c]pyrazol-3-yl)urea] |
| < 100 | COCCN1C[C@@H](NC(=O)Nc2c(C)c(OCC(F)(F)F)nn2-c2ccccc2)[C@H](c2cc(F)cc(F)c2)C1 [Example 477, 1-((3S,4R)-4-(3,5-difluorophenyvl)-1-(2-methoxyethyl)pyrrolidin-3-yl)-3-(4-methyl-1-phenyl-3-(2,2,2-trifluoroethoxy)-1H-pyrazol-5-yl)urea] |
| 100 to 1000 | COCCN1C[C@@H](NC(=O)Nc2c(C(F)(F)F)nn(C)c2-c2ccccc2)[C@H](c2ccc(F)c(F)c2)C1 [Example 646, 1-((3S,4R)-4-(3,4-difluorophenyl)-1-(2-methoxyethyl)pyrrolidin-3-yl)-3-(1-methyl-5-phenyl-3-(trifluoromethyl)-1H-pyrazol-4-yl)urea] |
| < 100 | COCCN1C[C@@H](NC(=O)Nc2c(C)c(OC[C@@H](C)O)nn2-c2ccccc2)[C@H](c2ccc(F)c(F)c2)C1 [Example 365, 1-((3S,4R)-4-(3,4-difluorophenyl)-1-(2-methoxyethyl)pyrrolidin-3-yl)-3-(3-((R)-2-hydroxypropoxy)-4-methyl-1-phenyl-1H-pyrazol-5-yl)urea] |
| < 100 | COCCN1C[C@@H](NC(=O)Nc2c(Cl)c(OCC(F)(F)F)nn2-c2ccccc2)[C@H](c2ccc(F)c(F)c2)C1 [Example 479, 1-(4-chloro-1-phenyl-3-(2,2,2-trifluoroethoxy)-1H-pyrazol-5-yl)-3-((3 S,4R)-4-(3,4-difluorophenyl)-1-(2-methoxyethyl)pyrrolidin-3-yl)urea] |
| < 100 | COCCN1C[C@@H](NC(=O)Nc2c(C(N)=O)cnn2-c2ccccc2)[C@H](c2ccc(F)c(F)c2)C1 [Example 627, 5-(3-((3S,4R)-4-(3,4-difluorophenyl)-1-(2-methoxyethyl)pyrrolidin-3-yl)ureido)-1-phenyl-1H-pyrazole-4-carboxamide] |
| < 100 | COCCN1C[C@@H](NC(=O)Nc2c(C)c([C@H]3CCCN3C)nn2-c2ccccc2)[C@H](c2ccc(F)c(F)c2)C1 [Example 597, 1-((3S,4R)-4-(3,4-difluorophenyl)-1-(2-methoxyethyl)pyrrolidin-3-yl)-3-(4-methyl-3-((R)-1-methylpyrrolidin-2-yl)-1-phenyl-1H-pyrazol-5-yl)urea dihydrochloride] |
| < 100 | COCCN1C[C@@H](NC(=O)Nc2c(C)c(OC)nn2-c2ccccc2)[C@H](c2ccc(F)c(F)c2)C1 [Example 140, 1-((3S,4R)-4-(3,4-difluorophenyl)-1-(2-methoxyethyl)pyrrolidin-3-yl)-3-(3-methoxy-4-methyl-1-phenyl-1H-pyrazol-5-yl)urea] |
| < 100 | COCCN1C[C@@H](NC(=O)Nc2c(Br)c(C3CCN(C(C)=O)CC3)nn2-c2ccccc2)[C@H](c2ccc(F)c(F)c2)C1 [Example 593, 1-(3-(1-acetylpiperidin-4-yl)-4-bromo-1-phenyl-1H-pyrazol-5-yl)-3-((3S,4R)-4-(3,4-difluorophenyl)-1-(2-methoxyethyl)pyrrolidin-3-yl)urea] |
| < 100 | COCCN1C[C@@H](NC(=O)Nc2c(C)c(-c3ccn(C)c(=O)c3)nn2-c2ccccc2)[C@H](c2cccc(F)c2)C1 [Example 531, 1-((3S,4R)-4-(3-fluorophenyl)-1-(2-methoxyethyl)pyrrolidin-3-yl)-3-(4-methyl-3-(1-methyl-2-oxo-1,2-dihydropyridin-4-yl)-1-phenyl-1H-pyrazol-5-yl)urea] |
| < 100 | 1-((3S,4R)-4-(3,4- fluorophenyl)-1-(2- methoxyethyl)pyrrolidin-3-yl)- 3-(1-(3-chlorophenyl)-1′,4- dimethyl-1H,1′H-[3,4′- bipyrazol]-5-yl)urea [Example 321] |
| < 100 | COCCN1C[C@@H](NC(=O)Nc2c(C)c([C@H]3C[C@H](O)C3)nn2-c2ccccc2)[C@H](c2ccc(F)c(F)c2)C1 [Example 451, 1-((3S,4R)-4-(3,4-difluorophenyl)-1-(2-methoxyethyl)pyrrolidin-3-yl)-3-(3-(trans-3-hydroxycyclobutyl)-4-methyl-1-phenyl-1H-pyrazol-5-yl)urea] |
| < 100 | COCCN1C[C@@H](NC(=O)Nc2cc(-c3ccccc3)nn2-c2ccccc2)[C@H](c2ccc(F)c(F)c2)C1 [Example 126, 1-((3S,4R)-4-(3,4-difluorophenyl)-1-(2-methoxyethyl)pyrrolidin-3-yl)-3-(1,3-diphenyl-1H-pyrazol-5-yl)urea] |
| < 100 | COCCN1C[C@@H](NC(=O)Nc2c(C)c(OCC(F)F)nn2-c2ccccc2)[C@H](c2ccc(F)c(F)c2)C1 [Example 478, 1-(3-(2,2-difluoroethoxy)-4-methyl-1-phenyl-1H-pyrazol-5-yl)-3-((3 S,4R)-4-(3,4-difluorophenyl)-1-(2-methoxyethyl)pyrrolidin-3-yl)urea] |
| < 100 | COCCN1C[C@@H](NC(=O)Nc2c(C)c([C@H]3C[C@H](O)C3)nn2-c2ccccc2)[C@H](c2ccc(F)cc2)C1 [Example 455, 1-((3S,4R)-4-(4-fluorophenyl)-1-(2-methoxyethyl)pyrrolidin-3-yl)-3-(3-(trans-3-hydroxycyclobutyl)-4-methyl-1-phenyl-1H-pyrazol-5-yl)urea] |
| < 100 | COCCN1C[C@@H](NC(=O)Nc2c(C)c(Br)nn2-c2ccccc2)[C@H](c2ccc(F)c(F)c2)C1 [Example 352, 1-(3-bromo-4-methyl-1-phenyl-1H-pyrazol-5-yl)-3-((3S,4R)-4-(3,4-difluorophenyl)-1-(2-methoxyethyl)pyrrolidin-3-yl)urea] |
| < 100 | COCCN1C[C@@H](NC(=S)Nc2c(Br)c(C)nn2-c2ccccc2)[C@H](c2ccc(F)c(F)c2)C1 [Example 630, 1-(4-bromo-3-methyl-1-phenyl-1H-pyrazol-5-yl)-3-((3S,4R)-4-(3,4-difluorophenyl)-1-(2-methoxyethyl)pyrrolidin-3-yl)thiourea] |
| < 100 | COCCN1C[C@@H](NC(=O)Nc2c(C)c(-c3cnn(C)c3)nn2-c2ccccc2)[C@H](c2cc(F)cc(Cl)c2)C1 (relative stereo) [Example 295, 1-(trans-4-(3-chloro-5-fluorophenyl)-1-(2-methoxyethyl)pyrrolidin-3-yl)-3-(1′,4-dimethyl-1-phenyl-1H,1′H-[3,4′-bipyrazol]-5-yl)urea] |
| 100 to 1000 | COCCN1C[C@@H](NC(=O)Nc2cc(COC)nn2-c2ccccc2)[C@H](c2ccccc2)C1 [Example 100, 1-((3S,4R)-1-(2-methoxy-ethyl)-4-phenylpyrrolidin-3-yl)-3-(3-(methoxy-methyl)-1-phenyl-1H-pyrazol-5-yl)urea] |
| < 100 | COCCN1C[C@@H](NC(=O)Nc2c(C)c(-c3nc(C(F)(F)F)no3)nn2-c2ccccc2)[C@H](c2ccc(F)c(F)c2)C1 [Example 299, 1-((3S,4R)-4-(3,4-difluorophenyl)-1-(2-methoxyethyl)pyrrolidin-3-yl)-3-(4-methyl-1-phenyl-3-(3-(trifluoromethyl)-1,2,4-oxadiazol-5-yl)-1H-pyrazol-5-yl)urea] |
| < 100 | COCCN1C[C@@H](NC(=O)Nc2c(C)c(-c3cc(C)nc(C)c3)nn2-c2ccccc2)[C@H](c2ccc(F)c(F)c2)C1 [Example 514, 1-((3S,4R)-4-(3,4-difluorophenyl)-1-(2-methoxyethyl)pyrrolidin-3-yl)-3-(3-(2,6-dimethylpyridin-4-yl)-4-methyl-1-phenyl-1H-pyrazol-5-yl)urea] |
| < 100 | COCCN1C[C@@H](NC(=O)Nc2c(C)c(-c3ccccc3)nn2-c2ccccc2)[C@H](c2ccc(F)cc2)C1 [Example 331, 1-((3S,4R)-4-(4-fluorophenyl)-1-(2-methoxyethyl)pyrrolidin-3-yl)-3-(4-methyl-1,3-diphenyl-1H-pyrazol-5-yl)urea] |
| 100 to 1000 | COCCN1C[C@@H](NC(=O)Nc2c(C)c(-c3cnn(C)c3)nn2-c2cncc(Cl)c2)[C@H](c2ccc(F)c(F)c2)C1 [Example 497, 1-(1-(5-chloropyridin-3-yl)-1′,4-dimethyl-1H, 1′H-[3,4′-bipyrazol]-5-yl)-3-((3 S,4R)-4-(3,4-difluorophenyl)-1-(2-methoxyethyl)pyrrolidin-3-yl)urea] |
